Common to all, as to assay type: cell-based
For experiment [1], the system named is Pichia anomala (DSM 70783). In words: Growth inhibition in sucrose solution pH 5, OD after 21 days. The settings on record: for Antifungal activity: pH 5, 21 days at 25° C.; for concentration at which active as single ingredient: sucrose solution pH 5, 21 days, tested at 25, 50, 75 ppm. The text has this:
(§1) The term “effective” when used to describe the capacity of a composition to inhibit growth of a yeast or mould strain is defined as the ability of such composition to inhibit growth of the strain in a growth medium consisting of a 105 g/L sucrose solution with an initial inoculum of 10^2-10^3 cfu/mL of such yeast or mould strain, so that the average optical density of the growth medium, as measured at 380 nm for yeast strains and at 500 nm for mould strains, is maintained below 0.2 after 21 days of culture at 25° C. under aerobic conditions. The growth medium of which the optical density is measured consists of the growth medium as it is at the end of the 21 days growth period.
(§2) For the purposes of the present invention, growth inhibition activity of a given compound against one of the above mentioned strains is measured as follows:
(§3) A 105 g/L solution of sucrose in water is prepared. Preferably, the sucrose solution is at pH 3±0.2 or at pH 5±0.2, in which case the sucrose solution is more preferably autoclaved at 121° C. for 15 minutes and the pH is re-checked to ensure it remains within the required range.
(§4) Test samples are prepared in a microtiter plate comprising 100 μL of one of the sucrose solutions prepared above, together with an initial inoculum of the fungal strain of which growth is intended to be inhibited, so as to achieve a microbial level comprised between 10^2 and 10^3 cfu/mL.
(§5) The composition of which the antifungal activity is intended to be evaluated is then added to the microtiter plate. Dilutions of the tested composition in each test sample are prepared to afford the desired final concentration. The microtiter plates are then stored in a standard 25° C. incubator under aerobic conditions.
(§6) The optical density (OD) of each sample is measured just after addition of the composition (control) and after 21 days of incubation. The OD is measured at 380 nm for yeast strains and at 500 nm for mould strains.
(§7) All tests are done in triplicate to ensure statistical relevance of the results obtained.
(§8) Growth inhibition of a particular strain by an ingredient at a particular concentration is given if the OD measured after 21 days of culture in these conditions is below 0.2.
(§9) A 105 g/L solution of sucrose in water at pH 5±0.2 was prepared. The sucrose solution was autoclaved at 121° C. for 15 minutes and the pH was re-checked to ensure it remained within the range.
(§10) Test samples were then prepared in microtiter plates. An amount of 100 μL of sucrose solution prepared above was mixed with an inoculum of 20 μL of one fungal strain, so as to achieve a microbial level comprised between 10^2 and 10^3 cfu/mL.
(§11) Composition A was then added to the microtiter plate. Dilutions were prepared in the microtiter plate for each mixture of sucrose solution and inoculum to afford final concentrations of 75 ppm and 125 ppm of Composition A. One well for each mixture of sucrose solution and inoculum was kept free of Composition A, to serve as a control.
(§12) The microtiter plates were then stored in a standard 25° C. incubator under aerobic conditions.
(§13) The optical density (OD) of each sample was measured after 21 days of incubation using a Bio-Tek Synergy™ HT Multi-Mode Microplate Reader (from Labtech International, UK). The wavelength was set to 380 nm for yeast strains and to 500 nm for mould strains.
(§14) All tests were done in triplicate to ensure statistical relevance of the results obtained.
(§15) 2-Methylhexanoic acid, geranic acid and sorbic acid were separately tested for their antifungal properties using the method described in Example 1 for evaluation of Composition A, except that dilutions were prepared in the microtiter plate for each mixture of sucrose solution and inoculum to afford final concentrations of 25 ppm, 50 ppm and 75 ppm of the tested ingredient. […]

Experiment [2] concerns Pichia membranaefaciens (DSM 70369). The experiment is described as above. The settings on record: for Antifungal activity: pH 5, 21 days at 25° C.; for concentration at which active as single ingredient: sucrose solution pH 5, 21 days, tested at 25, 50, 75 ppm.
Source text: as §1, §2, §3, §4, §5, §6, §7, §8, §9, §10, §11, §12, §13, §14, §15

The test system of the next experiment is each of the tested fungi. In words: Growth inhibition, summary over all tested strains. The settings on record: even at 75 ppm; strains of Tables 3-4 or 9-10. As to the method:
as §9, §10, §11, §12, §13, §14
2-Methylhexanoic acid, geranic acid and sorbic acid were separately tested for their antifungal properties using the method described in Example 1 for evaluation of Composition A, except that dilutions were prepared in the microtiter plate for each mixture of sucrose solution and inoculum to afford final concentrations of 25 ppm, 50 ppm and 75 ppm of the tested ingredient.
Composition B was then added to the microtiter plate.

Experiment [3] has as its system Zygosaccharomyces bailii (DSM 70492). In words: Growth inhibition in sucrose solution pH 5, OD after 21 days. The settings on record: for Antifungal activity: pH 5, 21 days at 25° C., OD 380 nm. The text has this:
The term “effective” when used to describe the capacity of a composition to inhibit growth of a yeast or mould strain is defined as the ability of such composition to inhibit growth of the strain in a growth medium consisting of a 105 g/L sucrose solution with an initial inoculum of 10^2-10^3 cfu/mL of such yeast or mould strain, so that the average optical density of the growth medium, as measured at 380 nm for yeast strains and at 500 nm for mould strains, is maintained below 0.2 after 21 days of culture at 25° C. under aerobic conditions. The growth medium of which the optical density is measured consists of the growth medium as it is at the end of the 21 days growth period. It therefore consists of the growth medium (sucrose solution at 105 g/L), together with the organisms which were able to grow during the 21 days culture period and the composition of the invention. For the purposes of the present invention, growth inhibition activity of a given compound against one of the above mentioned strains is measured as follows: A 105 g/L solution of sucrose in water is prepared. Preferably, the sucrose solution is at pH 3±0.2 or at pH 5±0.2, in which case the sucrose solution is more preferably autoclaved at 121° C. for 15 minutes and the pH is re-checked to ensure it remains within the required range. Test samples are prepared in a microtiter plate comprising 100 μL of one of the sucrose solutions prepared above, together with an initial inoculum of the fungal strain of which growth is intended to be inhibited, so as to achieve a microbial level comprised between 10^2 and 10^3 cfu/mL. The composition of which the antifungal activity is intended to be evaluated is then added to the microtiter plate. […] The microtiter plates are then stored in a standard 25° C. incubator under aerobic conditions. The optical density (OD) of each sample is measured just after addition of the composition (control) and after 21 days of incubation. The OD is measured at 380 nm for yeast strains and at 500 nm for mould strains. All tests are done in triplicate to ensure statistical relevance of the results obtained. Growth inhibition of a particular strain by an ingredient at a particular concentration is given if the OD measured after 21 days of culture in these conditions is below 0.2. A 105 g/L solution of sucrose in water at pH 5±0.2 was prepared. The sucrose solution was autoclaved at 121° C. for 15 minutes and the pH was re-checked to ensure it remained within the range. Test samples were then prepared in microtiter plates. […] Composition A was then added to the microtiter plate. […] One well for each mixture of sucrose solution and inoculum was kept free of Composition A, to serve as a control. The microtiter plates were then stored in a standard 25° C. incubator under aerobic conditions. The optical density (OD) of each sample was measured after 21 days of incubation using a Bio-Tek Synergy™ HT Multi-Mode Microplate Reader (from Labtech International, UK). The wavelength was set to 380 nm for yeast strains and to 500 nm for mould strains. All tests were done in triplicate to ensure statistical relevance of the results obtained.

The mark [4] stands for this setting: 75 ppm, OD 380 nm (Examples 3-4).

Regarding `O=C(O)c1ccccc1` [benzoic acid], the Antifungal activity entry in experiment [1] (25 ppm, OD 380 nm (Example 4)) is on record as “I (Letter I (for Inactive) is used when the measured OD was of at least 0.2)”; in experiment [1] (50 ppm, OD 380 nm (Example 4)), “A (Letter A (for Active) is indicated when the measured OD was below 0.2)”; in experiment [1] (setting [4]) it was “A (Letter A (for Active) is indicated when the measured OD was below 0.2)”; in experiment [2] (25 ppm, OD 380 nm (Example 4)), “I (Letter I (for Inactive) is used when the measured OD was of at least 0.2)”; in experiment [2] (50 ppm, OD 380 nm (Example 4)) it was “I (Letter I (for Inactive) is used when the measured OD was of at least 0.2)”; in experiment [2] (setting [4]), “A (Letter A (for Active) is indicated when the measured OD was below 0.2)”. Further, the “concentration at which active as single ingredient” value in experiment [1] is 50 ppm; in experiment [2], 75 ppm.

Regarding `CC(C)=CCC/C(C)=C/C(=O)O` [Geranic acid], the “antifungal activity as single ingredient against tested strains” value (“antifungal activity as single ingredient” for short) in the experiment on each of the tested fungi was “inactive”. The Antifungal activity entry in experiment [1] (25 ppm, OD 380 nm) was “I (Letter I (for Inactive) is used when the measured OD was of at least 0.2)”; in experiment [1] (50 ppm, OD 380 nm), “I (Letter I (for Inactive) is used when the measured OD was of at least 0.2)”; in experiment [1] (75 ppm, OD 380 nm), “I (Letter I (for Inactive) is used when the measured OD was of at least 0.2)”; in experiment [2] (25 ppm, OD 380 nm) it was “I (Letter I (for Inactive) is used when the measured OD was of at least 0.2)”; in experiment [2] (50 ppm, OD 380 nm) it was “I (Letter I (for Inactive) is used when the measured OD was of at least 0.2)”; in experiment [2] (75 ppm, OD 380 nm), “I (Letter I (for Inactive) is used when the measured OD was of at least 0.2)”. The Antifungal activity entry in experiment [3] (25 ppm), in experiment [3] (50 ppm) and in experiment [3] (75 ppm) was “I (Letter I (for Inactive) is used when the measured OD was of at least 0.2)” each time.

On to `CCC(=O)O` [Propanoic acid], for which, in the experiment with each of the tested fungi, the “antifungal activity as single ingredient” value is “inactive”. Besides, the Antifungal activity entry in experiment [1] (25 ppm, OD 380 nm (Example 4)) is “I (Letter I (for Inactive) is used when the measured OD was of at least 0.2)”; in experiment [1] (50 ppm, OD 380 nm (Example 4)), “I (Letter I (for Inactive) is used when the measured OD was of at least 0.2)”; in experiment [1] (setting [4]), “I (Letter I (for Inactive) is used when the measured OD was of at least 0.2)”; in experiment [2] (25 ppm, OD 380 nm (Example 4)), “I (Letter I (for Inactive) is used when the measured OD was of at least 0.2)”; in experiment [2] (50 ppm, OD 380 nm (Example 4)), “I (Letter I (for Inactive) is used when the measured OD was of at least 0.2)”; in experiment [2] (setting [4]) it was “I (Letter I (for Inactive) is used when the measured OD was of at least 0.2)”.

With `C/C=C/C=C/C(=O)O` [Sorbic acid], the Antifungal activity entry in experiment [1] (25 ppm, OD 380 nm) is on record as “I (Letter I (for Inactive) is used when the measured OD was of at least 0.2)”; in experiment [1] (50 ppm, OD 380 nm) it was “A (Letter A (for Active) is indicated when the measured OD was below 0.2)”; in experiment [1] (75 ppm, OD 380 nm), “A (Letter A (for Active) is indicated when the measured OD was below 0.2)”; in experiment [2] (25 ppm, OD 380 nm) it was “I (Letter I (for Inactive) is used when the measured OD was of at least 0.2)”; in experiment [2] (50 ppm, OD 380 nm), “I (Letter I (for Inactive) is used when the measured OD was of at least 0.2)”; in experiment [2] (75 ppm, OD 380 nm), “A (Letter A (for Active) is indicated when the measured OD was below 0.2)”. Besides, the Antifungal activity entry in experiment [3] (25 ppm) is given as “I (Letter I (for Inactive) is used when the measured OD was of at least 0.2)”; in experiment [3] (50 ppm), “I (Letter I (for Inactive) is used when the measured OD was of at least 0.2)”; in experiment [3] (75 ppm), “A (Letter A (for Active) is indicated when the measured OD was below 0.2)”. For the same compound, the “concentration at which active as single ingredient” value was 50 ppm in experiment [1]; 75 ppm in experiment [2]; 75 ppm in experiment [3] (sucrose solution pH 5, 21 days, tested at 25, 50, 75 ppm).

`CCCCC(C)C(=O)O` (centres unmarked) [2-Methylhexanoic acid]: in the experiment on each of the tested fungi, the “antifungal activity as single ingredient” value is “inactive”. Moreover, the Antifungal activity result in experiment [1] (25 ppm, OD 380 nm) was “I (Letter I (for Inactive) is used when the measured OD was of at least 0.2)”; in experiment [1] (50 ppm, OD 380 nm), “I (Letter I (for Inactive) is used when the measured OD was of at least 0.2)”; in experiment [1] (75 ppm, OD 380 nm), “I (Letter I (for Inactive) is used when the measured OD was of at least 0.2)”; in experiment [2] (25 ppm, OD 380 nm), “I (Letter I (for Inactive) is used when the measured OD was of at least 0.2)”; in experiment [2] (50 ppm, OD 380 nm), “I (Letter I (for Inactive) is used when the measured OD was of at least 0.2)”; in experiment [2] (75 ppm, OD 380 nm) it was “I (Letter I (for Inactive) is used when the measured OD was of at least 0.2)”. Besides, the Antifungal activity entry in experiment [3] (25 ppm), in experiment [3] (50 ppm) and in experiment [3] (75 ppm) was “I (Letter I (for Inactive) is used when the measured OD was of at least 0.2)” throughout.
